Results on 61 compounds are retold here after the METLIN SMRT retention time set (Domingo-Almenara et al. 2019).

Each structure is given as a SMILES string.

This data set can be described thus: gradient 5% acetonitrile 3 min, to 50% in 2 min, to 85% in 15 min, held 3 min, 100 µL/min. The note with it: column: Zorbax Extend-C18 2.1 x 50 mm; eluents: water / acetonitrile, 0.1% formic acid. In short, it runs like this:
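Mixtures of ~100 pure standards were chromatographed on a Zorbax Extend-C18 column (2.1 × 50 mm, 1.8 μm) at 100 μL/min using water and acetonitrile, each with 0.1% formic acid. Detection used a quadrupole time-of-flight mass spectrometer in positive and negative ionization mode, and data collection spanned 3 months. Retention time was obtained from adduct peaks picked computationally and each checked manually.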
Turning to `CC(=O)Nc1ccc(C(=O)NCCNC(=O)Nc2cccs2)cc1`, the RP-LC retention time stood at 600 s.
In the case of `COc1ccc(CSc2ncn[nH]2)cc1` it was 630 s; in that of `COCc1cn(C2CN(C(=O)C3(c4ccccc4)CC3)C2)nn1`, 688 s; in that of `CCNc1cc(N2CCCC(CCC(=O)NCc3ccccc3C)C2)ncn1` (stereo unspecified), 672 s.
In the case of `CC1CCCN(C(=O)c2cn(-c3cc(N4CCOCC4)ncn3)cn2)C1` (stereo unspecified) it was 709 s; in that of `O=C(CSc1nnc(-c2cccnc2)o1)Nc1c(Cl)cccc1Cl`, 654 s.
Consider `CCn1c(=O)c(C(=O)N2CCN(C3CCCCC3)CC2)nc2cccnc21`, for which the RP-LC retention time was 520 s.
As for `O=C(Nc1cc(F)cc(F)c1)C1CCCN(c2ccnc(-c3ccc(F)cc3)n2)C1` (stereo unspecified), the figure is 761 s; as for `COc1cccc(N2CCN(c3ccnc(SCC(=O)Nc4ccc(F)cc4F)n3)CC2)c1`, 804 s.
In the case of `CCc1nc2cc(-c3noc(COc4ccccc4C)n3)ccc2o1` it was 1270 s; in that of `O=C(Cn1nc2c(cc1=O)CCCCC2)Nc1nc(-c2ccncc2)cs1`, 620 s; in that of `O=C(Nc1ccc(F)c(Cl)c1)c1cn2c(n1)CCCC2`, 648 s.
In the case of `CC(C)NC(=O)c1ccc2ncnc(N3CCCCC3)c2c1` it was 586 s; in that of `O=C(c1csc(S(=O)(=O)N2CCC(C(=O)N3CCCC3)CC2)c1)N1CCCC1`, 661 s.
`CCCN1CCN(c2ncc(C(=O)Nc3ccc(OCC)cc3)c(N)n2)CC1` displayed an RP-LC retention time of 617 s.
As for `Fc1cccc(Cc2noc(-c3nc(-c4ccccc4)no3)n2)c1`, the figure is 1160 s.
As for `CCCNC(=O)Cn1cc(C(=O)Nc2ccc(Cl)cc2)c(=O)c2ccc(C)nc21`, the figure is 962 s.
Consider `COc1cccc(-c2noc(C3CCCN3C(=O)Nc3ccc(C)cc3Cl)n2)c1` (stereo unspecified), for which the RP-LC retention time came to 1120 s.
As for `Cc1nc(N2CCOCC2)c2c(C(=O)Nc3ccccc3Cl)c(C)oc2n1`, the figure is 911 s.
As for `Cc1cncn(CC(=O)N2CCN(S(C)(=O)=O)CC2)c1=O`, the figure is 528 s; as for `COc1ccc(-c2nc(-c3ccc4c(c3)ncn4CCC(=O)N3CCCC3)no2)cc1OC`, 776 s; as for `O=S(=O)(Nc1ccc(-c2ccc(N3CCCC3)nn2)cc1)c1ccc(Cl)s1`, 594 s.
As to `CCC(C)NC(=O)c1ccc2c(c1)CCN2C(C)=O` (stereo unspecified), the RP-LC retention time was found to be 668 s.
In the case of `Cc1cnc(C2CC2)n1C1CCN(S(=O)(=O)c2cccc(F)c2)C1` (stereo unspecified), the RP-LC retention time is 654 s.
Turning to `CC(C)Cc1ccc(S(=O)(=O)N2CCCC2c2nc(-c3ccc(F)cc3)no2)cc1` (stereo unspecified), the RP-LC retention time was 1360 s.
As for `CCOc1ccccc1C(=O)N1CCc2[nH]cnc2C12CCCCC2`, the figure is 641 s; as for `COc1ccc(CNC(=O)c2nnn(Cc3nc(-c4ccccc4)oc3C)c2N)cc1OC`, 859 s.
In the case of `CC1CCCN(S(=O)(=O)c2ccc(-c3nnc(C4CCC4)o3)o2)C1` (stereo unspecified) it was 1010 s; in that of `c1ccc(-c2nc(-c3ccc(-n4ccnc4)nc3)no2)cc1`, 720 s; in that of `COC(=O)c1c(C(=O)OC)c2c3ccccc3ccn2c1C(=O)OC`, 916 s.
In the case of `CCCNC(=O)C1CCN(c2cnc(N3CCN(CC)CC3)nc2)CC1` it was 565 s; in that of `CCc1noc(-c2ccnc(-n3cnc(C(=O)NCC4CC4)c3)c2)n1`, 801 s.
Turning to `Cc1cccc(NC(=O)C2CCN(S(=O)(=O)c3cc(C(=O)N4CCC(C)CC4)n(C)c3)CC2)n1`, the RP-LC retention time is 722 s.
As for `CCc1nc2cccnc2n1CCN1CCN(C(=O)Nc2ccc(Br)cc2F)CC1`, the figure is 624 s.
In the case of `COc1ccc(S(=O)(=O)N2CCN(c3cnn4c(C)nnc4c3)CC2)cc1` it was 670 s.
`CCOc1ccc2c(n1)CCN(C(=O)Nc1ccc(CC)cc1)C2` displayed an RP-LC retention time of 943 s.
As for `c1ccc(-c2nc3nccc(-c4ccc5c(c4)OCO5)n3n2)cc1`, the figure is 905 s; as for `CCn1c(=O)c(N2CCN(C(=O)Nc3cccc(SC)c3)CC2)nc2ccccc21`, 928 s.
In the case of `COc1ccccc1-c1noc2ncnc(N3CCN(c4ccccn4)CC3)c12` it was 646 s; in that of `CO[C@H]1C(=O)N(C(C)C)[C@H]1C1CCN(C(=O)c2ccco2)CC1`, 692 s; in that of `Cc1cc(NC(=O)C(=O)NCC(O)c2cccc3ccccc23)no1` (stereo unspecified), 734 s.
As for `CC(C(=O)N1CCN(C(=O)c2ccco2)CC1)n1c(=O)c(C(F)(F)F)nc2ccccc21` (stereo unspecified), the figure is 834 s.
With `CCOc1ccccc1NC(=O)N1CCC(n2cnc3cccnc32)CC1`, the RP-LC retention time worked out at 686 s.
As for `CCOc1ccc(Nc2c(C(=O)N3CCC(C)CC3)cnc3nc(C)ccc23)cc1`, the figure is 661 s; as for `CCC(C)(C)C(=O)N1CCCC(c2nc(CCNC(=O)C3CC3)cs2)C1` (stereo unspecified), 767 s.
In the case of `Cc1ccc(CNC(=O)Nc2ccc(-c3nc(-c4ccc(C)cc4C)co3)cc2)cc1` it was 1240 s; in that of `Cc1nc(C(=O)NCCCOC(C)C)c(C)n1C1CCN(C)CC1`, 547 s.
As for `Cc1ccc(CNc2c(-c3ccc(C)c(C)c3)nc3ncccn23)cc1`, the figure is 834 s; as for `c1ccc2c(OCc3nc4c5ccccc5ncn4n3)cccc2c1`, 1040 s.
For `CCC1Oc2ccc(C)cc2N(CC(=O)NCCN2CCc3ccccc3C2)C1=O` (stereo unspecified), the RP-LC retention time was determined as 698 s.
In the case of `COc1ccc2c(=O)c(Oc3ccc(C(=O)Nc4nccs4)cc3)c(C)oc2c1` it was 788 s; in that of `Cc1ccc2oc(-c3noc(C(=O)NCc4ccc(C)o4)n3)c(C)c2c1`, 1080 s.
As for `CCOc1ccc(S(=O)(=O)Nc2ccc(-c3cn4ccccc4n3)cc2)cc1`, the figure is 661 s; as for `CN1CCCCCCN(C(=O)c2ccsc2)[C@H]2CCC[C@H]2C1=O`, 797 s.
As for `CN(C)S(=O)(=O)c1ccc(COc2ccc(F)cc2)o1`, the figure is 875 s; as for `Cc1[nH]c(C(=O)Nc2ccc(F)cc2)c(C)c1S(=O)(=O)N1CCCC1`, 845 s.
`Cc1ccc2c(c1)N(S(C)(=O)=O)CCC(C(=O)Nc1ccc(Br)c(C)c1)O2` (stereo unspecified) displayed an RP-LC retention time of 1090 s.
As for `CC12CC(NC(=O)N1c1cccc(C(=O)NCc3ccccn3)c1)c1cc(Cl)ccc1O2` (stereo unspecified), the figure is 647 s; as for `Cc1ccc(C)c(-c2cc(C(=O)N3CCN(C)CC3)[nH]n2)c1`, 621 s; as for `CCc1nnc(-c2ccc3ccn(CC(=O)Nc4ccc(C(=O)OC)cc4)c3c2)o1`, 811 s.
In the case of `CCCCN(CC)c1nc(-c2ccccc2F)nc2ccccc12` it was 819 s.
